Test results: US20240217968A1, “PHARMACEUTICAL COMPOUND” (DUKE STREET BIO LIMITED, priority 2021, published 2024)

Target: T1, recombinant human Flag-tagged PARP7 (amino acids 456-657) (Homo sapiens, UniProt Q7Z3E1)
T1 construct: recombinant human Flag-tagged PARP7 (amino acids 456-657)
T1 sequence (Q7Z3E1 456-657): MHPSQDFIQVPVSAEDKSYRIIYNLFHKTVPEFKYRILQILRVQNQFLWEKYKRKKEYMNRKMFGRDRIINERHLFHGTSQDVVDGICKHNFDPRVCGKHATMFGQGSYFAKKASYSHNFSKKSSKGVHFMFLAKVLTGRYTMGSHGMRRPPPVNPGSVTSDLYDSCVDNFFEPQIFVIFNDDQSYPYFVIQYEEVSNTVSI
Assay: PARP7 biochemical DELFIA assay (auto-MARylation)
Conditions: DELFIA readout, IC50 class
Procedure, shortened: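 Readout is DELFIA time-resolved Eu fluorescence (Ex337 nm, Em620 nm) of biotin-ADP-ribose on immobilised Flag-tagged PARP7 456-657. Enzyme (12.5-37.5 nM as added) sat 30 min with compound before biotin-NAD+ (15 μM solution, pH 7.5 HEPES buffer) started 2-3 h room-temperature self-modification, stopped with excess NAD+.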

| SMILES | IC50 |
| --- | --- |
| CCc1nc2c(=O)[nH]ncc2n1CCOCCC(=O)N1CCN(c2ncc(C(F)(F)F)cn2)CC1 [Compound 260] | 1000 to 10000 nM |
| N#Cc1ccc(N2CCN(C(=O)CCOCCn3c(C(F)(F)F)nc4c(=O)[nH]ncc43)CC2)nc1 [Compound 272] | 1000 to 10000 nM |
| O=C(CCOCCc1cccc2c(=O)[nH]ncc12)N1CCC(c2cc(C(F)(F)F)[nH]n2)CC1 [Compound 282] | 1000 to 10000 nM |
| Cc1cnc(N2CCN(C(=O)CCOCC(C)n3nc(C(F)(F)F)c4c(=O)[nH]ncc43)CC2)nc1 (stereo not shown) [Compound 286] | ≤ 100 nM |
| Cc1cnc(N2CCN(C(=O)CCOCC(C)n3nc(C(F)(F)F)c4c(=O)[nH]ncc43)CC2)nc1 (stereo not shown) [Compound 287] | ≤ 100 nM |
| CC(COCCC(=O)N1CCN(c2ncc(C3COC3)cn2)CC1)n1nc(C(F)(F)F)c2c(=O)[nH]ncc21 (stereo not shown) [Compound 288] | ≤ 100 nM |
| CC(COCCC(=O)N1CCN(c2nnc(C(F)(F)F)s2)CC1)n1nc(C(F)(F)F)c2c(=O)[nH]ncc21 (stereo not shown) [Compound 292] | ≤ 100 nM |
| CC(COCCC(=O)N1CCN(c2ncc(OC(F)F)cn2)CC1)n1nc(C(F)(F)F)c2c(=O)[nH]ncc21 (stereo not shown) [Compound 293] | ≤ 100 nM |
| O=C(CCOCCn1nc(C(F)(F)F)c2c(=O)[nH]ncc21)N1CCN(c2ccc(C3COC3)cn2)CC1 [Compound 295] | ≤ 100 nM |
| CCC(COCCC(=O)N1CCN(c2ncc(C(F)(F)F)cn2)CC1)n1nc(C(F)(F)F)c2c(=O)[nH]ncc21 (stereo not shown) [Compound 297] | ≤ 100 nM |
| CCC(COCCC(=O)N1CCN(c2ncc(C(F)(F)F)cn2)CC1)n1nc(C(F)(F)F)c2c(=O)[nH]ncc21 (stereo not shown) [Compound 298] | ≤ 100 nM |
| O=C(CCOCCn1nc(C(F)(F)F)c2c(=O)[nH]ncc21)N1CCN(c2nc(C(F)(F)F)cs2)CC1 [Compound 299] | ≤ 100 nM |
| O=C(CCOCCn1nc(C(F)(F)F)c2c(=O)[nH]ncc21)N1CCN(c2ccc(C3CC3)cn2)CC1 [Compound 300] | ≤ 100 nM |
| O=C1CCc2cnc(N3CCN(C(=O)CCOCCn4nc(C(F)(F)F)c5c(=O)[nH]ncc54)CC3)nc2N1 [Compound 303] | ≤ 100 nM |
| CNC(=O)c1ccc(N2CCN(C(=O)CCOCC(C)n3nc(C(F)(F)F)c4c(=O)[nH]ncc43)CC2)nc1 (stereo not shown) [Compound 304] | 100 to 1000 nM |
| COc1ccc(N2CCN(C(=O)CCOCC(C)n3nc(C(F)(F)F)c4c(=O)[nH]ncc43)CC2)nc1 (stereo not shown) [Compound 307] | ≤ 100 nM |
| CC1CN(C(=O)CCOCCN2C(=O)CCc3c2cn[nH]c3=O)CCN1c1ncc(C(F)(F)F)cn1 (stereo not shown) [Compound 308] | ≤ 100 nM |
| CC1CN(C(=O)CCOCCN2C(=O)CCc3c2cn[nH]c3=O)CCN1c1ncc(C(F)(F)F)cn1 (stereo not shown) [Compound 309] | ≤ 100 nM |
| CC(COCCC(=O)N1CCN(c2cnc(C#N)cn2)CC1)n1nc(C(F)(F)F)c2c(=O)[nH]ncc21 (stereo not shown) [Compound 312] | ≤ 100 nM |
| CC(COCCC(=O)N1CCN(c2cnc(C#N)cn2)CC1)n1nc(C(F)(F)F)c2c(=O)[nH]ncc21 (stereo not shown) [Compound 313] | ≤ 100 nM |
| O=C(CCOCCn1nc(C(F)(F)F)c2c(=O)[nH]ncc21)N1CCN(c2nc(C(F)(F)F)co2)CC1 [Compound 314] | ≤ 100 nM |
| O=C(CCOCCn1nc(C(F)(F)F)c2c(=O)[nH]ncc21)N1CCN(c2ncc(C3CC3)cn2)CC1 [Compound 315] | ≤ 100 nM |
| O=C1NCCn2c(CCOCCC(=O)N3CCN(c4ncc(C(F)(F)F)cn4)CC3)cc(C(F)(F)F)c21 [Compound 316, 6-(2-(3-oxo-3-(4-(5-(trifluoromethyl)pyrimidin-2-yl)piperazin-1-yl)propoxy)ethyl)-8-(trifluoromethyl)-3,4-dihydropyrrolo[1,2-a]pyrazin-1(2H)-one] | ≤ 100 nM |
| CN(C(=O)COCCn1nc(C(F)(F)F)c2c(=O)[nH]ncc21)C1CCN(c2ncc(C(F)(F)F)cn2)CC1 [Compound 317, N-methyl-2-(2-(4-oxo-3-(trifluoromethyl)-4,5-dihydro-1H-pyrazolo[3,4-d]pyridazin-1-yl)ethoxy)-N-(1-(5-(trifluoromethyl)pyrimidin-2-yl)piperidin-4-yl)acetamide] | ≤ 100 nM |
| O=C(CCOCCn1nc(C(F)(F)F)c2c(=O)[nH]ncc21)N1CCN(c2noc(C(F)(F)F)n2)CC1 [Compound 320] | ≤ 100 nM |
| CNC(=O)c1cnc(N2CCN(C(=O)CCOCC(C)n3nc(C(F)(F)F)c4c(=O)[nH]ncc43)CC2)nc1 (stereo not shown) [Compound 325] | ≤ 100 nM |
| CC(COCCC(=O)N1CCN(c2ncc(C#N)o2)CC1)n1nc(C(F)(F)F)c2c(=O)[nH]ncc21 (stereo not shown) [Compound 329] | ≤ 100 nM |
| CC(COCCC(=O)N1CCN(c2ncc(C#N)o2)CC1)n1nc(C(F)(F)F)c2c(=O)[nH]ncc21 (stereo not shown) [Compound 330] | ≤ 100 nM |
| O=C(CCOCCn1nc(C2CC2)c2c(=O)[nH]ncc21)N1CCN(c2ncc(C(F)(F)F)cn2)CC1 [Compound 333] | ≤ 100 nM |

Continued, values first:

| IC50 | SMILES |
| --- | --- |
| ≤ 100 nM | O=C(CCOCCc1cccc2c(=O)[nH]ccc12)N1CCN(c2ncc(C(F)(F)F)cn2)CC1 [Compound 233] |
| ≤ 100 nM | O=C1NCCn2c(CCOCCC(=O)N3CCN(c4ncc(C(F)(F)F)cn4)CC3)nc(C(F)(F)F)c21 [Compound 235, 3-(2-(3-oxo-3-(4-(5-(trifluoromethyl)pyrimidin-2-yl)piperazin-1-yl)propoxy)ethyl)-1-(trifluoromethyl)-6,7-dihydroimidazo[1,5-a]pyrazin-8(5H)-one] |
| ≤ 100 nM | O=C(CCOCCn1nc(C(F)F)c2c(=O)[nH]ncc21)N1CCN(c2ncc(C(F)(F)F)cn2)CC1 [Compound 236, 3-(difluoromethyl)-1-(2-(3-oxo-3-(4-(5-(trifluoromethyl)pyrimidin-2-yl)piperazin-1-yl)propoxy)ethyl)-1,5-dihydro-4H-pyrazolo[3,4-d]pyridazin-4-one] |
| ≤ 100 nM | CC1(C)CN(C(=O)CCOCCn2cc(C(F)(F)F)c3c(=O)[nH]ncc32)CCN1c1ccc(C(F)(F)F)cn1 [Compound 237] |
| ≤ 100 nM | O=C(CCOCCn1cc(C(F)(F)F)c2c(=O)[nH]ncc21)N1CCN(c2ccc(Cl)cn2)CC1 [Compound 238] |
| ≤ 100 nM | O=C(CCOCCN1C(=O)CCc2c1cn[nH]c2=O)N1CCN(c2ccc(C(F)(F)F)cn2)CC1 [Compound 240, 1-(2-(3-oxo-3-(4-(5-(trifluoromethyl)pyridin-2-yl)piperazin-1-yl)propoxy)ethyl)-4,6-dihydropyrido[2,3-d]pyridazine-2,5(1H,3H)-dione] |
| ≤ 100 nM | O=C(CCOCCN1C(=O)CCc2c1cn[nH]c2=O)N1CCN(c2ncc(Cl)cn2)CC1 [Compound 242] |
| ≤ 100 nM | Cc1nn(C(C)COCCC(=O)N2CCN(c3ccc(C#N)cn3)CC2)c2cn[nH]c(=O)c12 (stereo not shown) [Compound 243] |
| ≤ 100 nM | Cc1nn(C(C)COCCC(=O)N2CCN(c3ccc(C#N)cn3)CC2)c2cn[nH]c(=O)c12 (stereo not shown) [Compound 244] |
| ≤ 100 nM | Cc1nn(C(C)COCCC(=O)N2CCN(c3ncc(C(F)(F)F)cn3)CC2)c2cn[nH]c(=O)c12 (stereo not shown) [Compound 246] |
| ≤ 100 nM | O=C(CCOCCn1nc(C(F)(F)F)c2c(=O)[nH]ncc21)N1CCN(c2ncc(C(F)(F)F)s2)CC1 [Compound 247] |
| ≤ 100 nM | CC(COCCC(=O)N1CCN(c2nc(C#N)cs2)CC1)n1nc(C(F)(F)F)c2c(=O)[nH]ncc21 (stereo not shown) [Compound 251] |
| ≤ 100 nM | CC(C)(C)c1cnc(N2CCN(C(=O)CCOCCc3cccc4c(=O)[nH]ncc34)CC2)nc1 [Compound 252] |
| ≤ 100 nM | Cc1nn(CCOCCC(=O)N2CCN(c3ncc(C(F)(F)F)cn3)C(C)C2)c2cn[nH]c(=O)c12 (stereo not shown) [Compound 256] |
| ≤ 100 nM | O=C(CCOCCn1nc(C(F)(F)F)c2c(=O)[nH]ncc21)N1CCN(c2nc3ccccc3[nH]2)CC1 [Compound 257] |
| ≤ 100 nM | CC(COCCC(=O)N1CCN(c2ncc(C(F)(F)F)s2)CC1)n1nc(C(F)(F)F)c2c(=O)[nH]ncc21 (stereo not shown) [Compound 259] |
| ≤ 100 nM | O=C(CCOCCN1C(=O)CCc2c1cn[nH]c2=O)N1CCN(c2ccc(Cl)cn2)CC1 [Compound 261] |
| ≤ 100 nM | CC(COCCC(=O)N1CCN(c2ncc(C(F)F)cn2)CC1)n1nc(C(F)(F)F)c2c(=O)[nH]ncc21 (stereo not shown) [Compound 264] |
| ≤ 100 nM | CC(COCCC(=O)N1CCN(c2ncc(C(F)F)cn2)CC1)n1nc(C(F)(F)F)c2c(=O)[nH]ncc21 (stereo not shown) [Compound 265] |
| ≤ 100 nM | CC(COCCC(=O)N1CCN(c2cnc(C(F)(F)F)cn2)CC1)n1nc(C(F)(F)F)c2c(=O)[nH]ncc21 (stereo not shown) [Compound 267] |
| ≤ 100 nM | Cc1nn(CCOCCC(=O)N2CCN(c3ncc(C(F)(F)F)cn3)CC2C)c2cn[nH]c(=O)c12 (stereo not shown) [Compound 268] |
| ≤ 100 nM | CC(COCCC(=O)N1CCN(c2ccc(C#N)cn2)CC1)n1nc(C(F)(F)F)c2c(=O)[nH]ncc21 (stereo not shown) [Compound 269] |
| ≤ 100 nM | CC(COCCC(=O)N1CCN(c2ncc(Cl)cn2)CC1)n1cc(C(F)(F)F)c2c(=O)[nH]ncc21 (stereo not shown) [Compound 273] |
| ≤ 100 nM | CC(COCCC(=O)N1CCN(c2ccc(OC(F)F)cn2)CC1)n1nc(C(F)(F)F)c2c(=O)[nH]ncc21 (stereo not shown) [Compound 275] |
| ≤ 100 nM | O=C(CCOCCn1nc(C(F)(F)F)c2c(=O)[nH]ncc21)N1CCN(c2nnc(C(F)(F)F)s2)CC1 [Compound 276] |
| ≤ 100 nM | O=C(CCOCCN1C(=O)CCc2c1cn[nH]c2=O)N1CCN(c2nc3ccccc3o2)CC1 [Compound 277] |
| ≤ 100 nM | CC(COCCC(=O)N1CCN(c2ccc(C3CC3)cn2)CC1)n1nc(C(F)(F)F)c2c(=O)[nH]ncc21 (stereo not shown) [Compound 278] |
| ≤ 100 nM | CC(COCCC(=O)N1CCN(c2ncc(C#N)s2)CC1)n1nc(C(F)(F)F)c2c(=O)[nH]ncc21 (stereo not shown) [Compound 283] |
| ≤ 100 nM | O=C(CCOCCn1nc(C(F)(F)F)c2c(=O)[nH]ncc21)N1CCN(c2ncc(Cl)cn2)CC1 [Compound 285] |
